The text below walks through data of patent US10093713B2, “GIP-GLP-1 dual agonist compounds and methods” (priority 2013, dated 2018).

Assay [1] deals with T1, human GLP-1 R (Homo sapiens, UniProt P43220).
T1 construct: expressed in transfected cells
Briefly: Human GLP-1 receptor (GLP-1 R) activity assay, cAMP induction (AlphaScreen) in HEK293 cells. It counts as cell-based. The gist of the method: (§1)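 Stable HEK293 clones expressing human GIP R or GLP-1 R, seeded 1 day before; cells washed in Tyrode's buffer (10 mM HEPES, pH 7.4), stimulated, then lysed. cAMP measured by AlphaScreen bead competition (1 h, room temperature, dark). EC50 = concentration giving half-maximal cAMP elevation, from curves of absolute cAMP (nM) vs log concentration.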

Assay [2] has as its target T2, human GIP R (Homo sapiens, UniProt P48546).
T2 construct: expressed in transfected cells
T2 sequence (P48546 22-466): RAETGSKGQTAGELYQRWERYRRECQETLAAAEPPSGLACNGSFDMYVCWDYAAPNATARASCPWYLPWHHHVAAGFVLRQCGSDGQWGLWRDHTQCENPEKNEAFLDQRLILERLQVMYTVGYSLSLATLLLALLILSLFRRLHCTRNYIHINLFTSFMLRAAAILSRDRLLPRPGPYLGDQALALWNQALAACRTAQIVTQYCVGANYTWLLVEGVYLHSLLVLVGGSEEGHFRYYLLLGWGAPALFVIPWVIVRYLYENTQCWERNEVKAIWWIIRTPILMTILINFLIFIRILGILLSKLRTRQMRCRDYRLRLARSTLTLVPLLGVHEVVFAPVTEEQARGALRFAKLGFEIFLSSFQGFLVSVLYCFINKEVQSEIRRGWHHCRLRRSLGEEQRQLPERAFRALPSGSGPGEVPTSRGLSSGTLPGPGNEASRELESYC
Briefly: Human GIP receptor (GIP R) activity assay, cAMP induction (AlphaScreen) in HEK293 cells. The assay is classed as cell-based. The gist of the method:
as §1

Where [3] appears, read: Table 2a, secondary assay study, read-out: hGLP1-R cAMP EC50 average value.
Where [4] appears, read: Table 2a, secondary assay study, read-out: hGIP-R cAMP EC50 average value.
The mark [5] stands for this setting: Table 2, HEK293 cells expressing human GLP-1 R, read-out: hGLP1-R cAMP EC50 average value.
Where [6] appears, read: Table 2, HEK293 cells expressing human GIP R, read-out: hGIP-R cAMP EC50 average value.
The mark [7] stands for this setting: Table 3, most comprehensive data, read-out: hGIP-R cAMP EC50 average value.

Read-outs that look alike come from different tables or passages of the source. *1 amine or outer side, *2 acyl side, *3 side chain or, on linkers, in order; H or OH if unused. Where a SMILES comes first, the peptide text is derived from it. Side-chain parts run from the residue outwards. [ ]: non-standard residue; d: D form. The star is where a group is joined. C18 diacid = O=C(O)CCCCCCCCCCCCCCCCC(=O)*; γGlu = O=C(O)[C@H](CCC(=O)[*:2])N[*:1]; AEEA = NCCOCCOCC(=O)O; Aib = CC(C)(N)C(=O)O

T1 sequence (P43220 24-463): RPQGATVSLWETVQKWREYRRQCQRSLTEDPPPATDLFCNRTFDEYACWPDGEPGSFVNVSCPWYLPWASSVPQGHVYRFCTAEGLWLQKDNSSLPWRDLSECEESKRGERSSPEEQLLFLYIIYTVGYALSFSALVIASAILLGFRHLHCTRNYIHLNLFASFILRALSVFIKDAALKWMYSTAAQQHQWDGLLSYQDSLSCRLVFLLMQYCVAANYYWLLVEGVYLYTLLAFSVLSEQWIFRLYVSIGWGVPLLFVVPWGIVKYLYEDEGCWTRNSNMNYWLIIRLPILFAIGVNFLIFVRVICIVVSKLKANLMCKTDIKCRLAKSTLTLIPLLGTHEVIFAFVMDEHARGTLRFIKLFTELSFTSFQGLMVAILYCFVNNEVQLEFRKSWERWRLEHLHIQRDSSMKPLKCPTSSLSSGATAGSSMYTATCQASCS

As to `CC[C@H](C)[C@H](NC(=O)[C@H](CO)NC(=O)[C@H](Cc1ccc(O)cc1)NC(=O)[C@H](CC(=O)O)NC(=O)[C@H](CO)NC(=O)[C@@H](NC(=O)[C@H](Cc1ccccc1)NC(=O)[C@@H](NC(=O)CNC(=O)[C@H](CCC(=O)O)NC(=O)C(C)(C)NC(=O)[C@@H](N)Cc1ccc(O)cc1)[C@@H](C)O)[C@@H](C)O)C(=O)N[C@@H](Cc1ccc(O)cc1)C(=O)N[C@@H](CC(C)C)C(=O)N[C@@H](CCC(=O)O)C(=O)N[C@@H](CCCCN)C(=O)N[C@@H](CCCCNC(=O)COCCOCCNC(=O)COCCOCCNC(=O)CC[C@H](NC(=O)CCCCCCCCCCCCCCCCC(=O)O)C(=O)O)C(=O)N[C@@H](C)C(=O)N[C@@H](CCC(N)=O)C(=O)N[C@@H](CCCNC(=N)N)C(=O)N[C@@H](C)C(=O)N[C@@H](Cc1ccccc1)C(=O)N[C@H](C(=O)N[C@@H](CCC(=O)O)C(=O)N[C@@H](Cc1c[nH]c2ccccc12)C(=O)N[C@@H](CC(C)C)C(=O)N[C@@H](CC(C)C)C(=O)N[C@@H](CCCNC(=N)N)C(=O)N[C@@H](C)C(N)=O)C(C)C` [Compound 19] (H-Y[Aib]EGTFTSDYSIYLEKK([AEEA-AEEA-γGlu-C18 diacid])AQRAFVEWLLRA-NH2), the values for the EC50 in assay [1] (setting [3]) and in assay [2] (setting [4]) were 22 pM and 14 pM, respectively.
Turning to `CC[C@H](C)[C@H](NC(=O)[C@H](CO)NC(=O)[C@H](CC(C)C)NC(=O)[C@H](CC(=O)O)NC(=O)[C@H](CO)NC(=O)[C@@H](NC(=O)[C@H](Cc1ccccc1)NC(=O)[C@@H](NC(=O)CNC(=O)[C@H](CCC(=O)O)NC(=O)C(C)(C)NC(=O)[C@@H](N)Cc1ccc(O)cc1)[C@@H](C)O)[C@@H](C)O)C(=O)N[C@@H](C)C(=O)N[C@@H](CC(C)C)C(=O)N[C@@H](CC(=O)O)C(=O)N[C@@H](CCCCN)C(=O)N[C@@H](CCCCNC(=O)COCCOCCNC(=O)COCCOCCNC(=O)CC[C@H](NC(=O)CCCCCCCCCCCCCCCCC(=O)O)C(=O)O)C(=O)N[C@@H](C)C(=O)N[C@@H](CCC(N)=O)C(=O)N[C@@H](CCCNC(=N)N)C(=O)N[C@@H](C)C(=O)N[C@@H](Cc1ccccc1)C(=O)N[C@H](C(=O)N[C@@H](CC(N)=O)C(=O)N[C@@H](Cc1c[nH]c2ccccc12)C(=O)N[C@@H](CC(C)C)C(=O)N[C@H](C(=O)N[C@@H](C)C(=O)NC(C)(C)C(=O)N[C@@H](CCCCN)C(N)=O)C(C)C)C(C)C` [Compound 20], the EC50 in assay [1] was determined as 11 pM; in assay [2] (hGIP-R cAMP EC50 average value, Table 2, HEK293 cells expressing human GIP R), 9.7 pM.
With `CC[C@H](C)[C@H](NC(=O)[C@H](CO)NC(=O)[C@H](CC(C)C)NC(=O)[C@H](CC(=O)O)NC(=O)[C@H](CO)NC(=O)[C@@H](NC(=O)[C@H](Cc1ccccc1)NC(=O)[C@@H](NC(=O)CNC(=O)[C@H](CCC(=O)O)NC(=O)C(C)(C)NC(=O)[C@@H](N)Cc1ccc(O)cc1)[C@@H](C)O)[C@@H](C)O)C(=O)N[C@@H](C)C(=O)N[C@@H](CC(C)C)C(=O)N[C@@H](CC(=O)O)C(=O)N[C@@H](CCCCN)C(=O)N[C@@H](CCCCNC(=O)COCCOCCNC(=O)COCCOCCNC(=O)CC[C@H](NC(=O)CCCCCCCCCCCCCCCCC(=O)O)C(=O)O)C(=O)N[C@@H](C)C(=O)N[C@@H](CCC(N)=O)C(=O)N[C@@H](CCCNC(=N)N)C(=O)N[C@@H](C)C(=O)N[C@@H](Cc1ccccc1)C(=O)N[C@H](C(=O)N[C@@H](CC(N)=O)C(=O)N[C@@H](Cc1c[nH]c2ccccc12)C(=O)N[C@@H](CC(C)C)C(=O)N[C@H](C(=O)N[C@@H](C)C(=O)NC(C)(C)C(=O)N[C@@H](CCCCN)C(N)=O)C(C)C)C(C)C` [Compound 21], the EC50 in assay [1] (setting [3]) and in assay [2] (setting [4]) was 10 pM in each case.
On to `CC[C@H](C)[C@H](NC(=O)[C@H](CO)NC(=O)[C@H](Cc1ccc(O)cc1)NC(=O)[C@H](CC(=O)O)NC(=O)[C@H](CO)NC(=O)[C@@H](NC(=O)[C@H](Cc1ccccc1)NC(=O)[C@@H](NC(=O)CNC(=O)[C@H](CCC(=O)O)NC(=O)C(C)(C)NC(=O)[C@@H](N)Cc1ccc(O)cc1)[C@@H](C)O)[C@@H](C)O)C(=O)N[C@@H](C)C(=O)N[C@@H](CC(C)C)C(=O)N[C@@H](CC(=O)O)C(=O)N[C@@H](CCCCN)C(=O)N[C@@H](CCCCNC(=O)COCCOCCNC(=O)COCCOCCNC(=O)CC[C@H](NC(=O)CCCCCCCCCCCCCCCCC(=O)O)C(=O)O)C(=O)N[C@@H](C)C(=O)N[C@@H](CCC(N)=O)C(=O)N[C@@H](CCCNC(=N)N)C(=O)N[C@@H](C)C(=O)N[C@@H](Cc1ccccc1)C(=O)N[C@H](C(=O)N[C@@H](CCC(=O)O)C(=O)N[C@@H](Cc1c[nH]c2ccccc12)C(=O)N[C@@H](CC(C)C)C(=O)N[C@H](C(=O)N[C@@H](C)C(=O)NC(C)(C)C(=O)N[C@@H](CCCCN)C(N)=O)C(C)C)C(C)C` [Compound 21] (H-Y[Aib]EGTFTSDYSIALDKK([AEEA-AEEA-γGlu-C18 diacid])AQRAFVEWLVA[Aib]K-NH2), for which the results for the 50% effective concentration (EC50) in assay [1] (setting [5]), in assay [2] (setting [6]) and in assay [2] (setting [7]) were 11 pM, 6.8 pM and 7 pM, respectively.
In the case of `CC[C@H](C)[C@H](NC(=O)[C@H](CO)NC(=O)[C@H](Cc1ccc(O)cc1)NC(=O)[C@H](CC(=O)O)NC(=O)[C@H](CO)NC(=O)[C@@H](NC(=O)[C@H](Cc1ccccc1)NC(=O)[C@@H](NC(=O)CNC(=O)[C@H](CCC(=O)O)NC(=O)C(C)(C)NC(=O)[C@@H](N)Cc1ccc(O)cc1)[C@@H](C)O)[C@@H](C)O)C(=O)N[C@@H](C)C(=O)N[C@@H](CC(C)C)C(=O)N[C@@H](CCC(=O)O)C(=O)N[C@@H](CCCCN)C(=O)N[C@@H](CCCCNC(=O)COCCOCCNC(=O)COCCOCCNC(=O)CC[C@H](NC(=O)CCCCCCCCCCCCCCCCC(=O)O)C(=O)O)C(=O)N[C@@H](C)C(=O)N[C@@H](CCC(N)=O)C(=O)N[C@@H](CCCNC(=N)N)C(=O)N[C@@H](C)C(=O)N[C@@H](Cc1ccccc1)C(=O)N[C@H](C(=O)N[C@@H](CCC(=O)O)C(=O)N[C@@H](Cc1c[nH]c2ccccc12)C(=O)N[C@@H](CC(C)C)C(=O)N[C@@H](CCC(=O)O)C(=O)N[C@@H](C)C(=O)N[C@@H](CCC(N)=O)C(=O)NCC(=O)N1CCC[C@H]1C(=O)N[C@@H](CO)C(=O)N[C@@H](CO)C(=O)NCC(=O)N[C@@H](C)C(=O)N1CCC[C@H]1C(=O)N1CCC[C@H]1C(=O)N1CCC[C@H]1C(=O)N[C@@H](CO)C(N)=O)C(C)C` [Compound 22] (H-Y[Aib]EGTFTSDYSIALEKK([AEEA-AEEA-γGlu-C18 diacid])AQRAFVEWLEAQGPSSGAPPPS-NH2), the EC50 in assay [1] (setting [5]) turned out to be 61 pM; in assay [1] (Table 3, most comprehensive data, read-out: hGLP-1-R cAMP EC50 average value), 61 pM; in assay [2] (setting [6]) it was 60 pM; in assay [2] (setting [7]), 60 pM.
`CC[C@H](C)[C@H](NC(=O)[C@H](CO)NC(=O)[C@H](Cc1ccc(O)cc1)NC(=O)[C@H](CC(=O)O)NC(=O)[C@H](CO)NC(=O)[C@@H](NC(=O)[C@H](Cc1ccccc1)NC(=O)[C@@H](NC(=O)CNC(=O)[C@H](CCC(=O)O)NC(=O)C(C)(C)NC(=O)[C@@H](N)Cc1ccc(O)cc1)[C@@H](C)O)[C@@H](C)O)C(=O)N[C@@H](C)C(=O)N[C@@H](CC(C)C)C(=O)N[C@@H](CCC(=O)O)C(=O)N[C@@H](CCCCN)C(=O)N[C@@H](CCCCNC(=O)COCCOCCNC(=O)COCCOCCNC(=O)CC[C@H](NC(=O)CCCCCCCCCCCCCCCCC(=O)O)C(=O)O)C(=O)N[C@@H](C)C(=O)N[C@@H](CCC(N)=O)C(=O)N[C@@H](CCCNC(=N)N)C(=O)N[C@@H](C)C(=O)N[C@@H](Cc1ccccc1)C(=O)N[C@H](C(=O)N[C@@H](CCC(=O)O)C(=O)N[C@@H](Cc1c[nH]c2ccccc12)C(=O)N[C@@H](CC(C)C)C(=O)N[C@@H](CCC(=O)O)C(=O)N[C@@H](C)C(=O)N[C@@H](CCC(N)=O)C(=O)N[C@@H](CCCCN)C(N)=O)C(C)C` [Compound 23] (H-Y[Aib]EGTFTSDYSIALEKK([AEEA-AEEA-γGlu-C18 diacid])AQRAFVEWLEAQK-NH2): the results for the EC50 in assay [1] (setting [5]), in assay [2] (setting [6]) and in assay [2] (setting [7]) were 44 pM, 200 pM and 200 pM, respectively.
Take `CC[C@H](C)[C@H](NC(=O)[C@H](CO)NC(=O)[C@H](CC(C)C)NC(=O)[C@H](CC(=O)O)NC(=O)[C@H](CO)NC(=O)[C@@H](NC(=O)[C@H](Cc1ccccc1)NC(=O)[C@@H](NC(=O)CNC(=O)[C@H](CCC(=O)O)NC(=O)C(C)(C)NC(=O)[C@@H](N)Cc1ccc(O)cc1)[C@@H](C)O)[C@@H](C)O)C(=O)N[C@@H](C)C(=O)N[C@@H](CC(C)C)C(=O)N[C@@H](CCC(=O)O)C(=O)N[C@@H](CCCCN)C(=O)N[C@@H](CCCCNC(=O)COCCOCCNC(=O)COCCOCCNC(=O)CC[C@H](NC(=O)CCCCCCCCCCCCCCCCC(=O)O)C(=O)O)C(=O)N[C@@H](C)C(=O)N[C@@H](CCC(N)=O)C(=O)N[C@@H](CCCNC(=N)N)C(=O)N[C@@H](C)C(=O)N[C@@H](Cc1ccccc1)C(=O)N[C@H](C(=O)N[C@@H](CCC(=O)O)C(=O)N[C@@H](Cc1c[nH]c2ccccc12)C(=O)N[C@@H](CC(C)C)C(=O)N[C@@H](CCC(=O)O)C(=O)N[C@@H](C)C(=O)N[C@@H](CCC(N)=O)C(=O)N[C@@H](CCCCN)C(N)=O)C(C)C` [Compound 24] (H-Y[Aib]EGTFTSDLSIALEKK([AEEA-AEEA-γGlu-C18 diacid])AQRAFVEWLEAQK-NH2): the EC50 came out at 11 pM in assay [1] (setting [5]) and 260 pM in assay [2] (setting [7]).
